Assay results as given in patent US7488743B2, “Indolin-2-one pyridine derivatives, preparation and therapeutic use thereof” (Sanofi-Aventis, priority 2004, dated 2009).
Counter-ions that a name gives are not always drawn.

Tests used:
[1] = target: T1, human uterine oxytocin receptors (Homo sapiens, UniProt P30559); experiment: in vitro binding test: displacement of a radioiodinated oxytocin analog in a membrane preparation; settings: read-out: IC50 (concentration which inhibits 50% of the binding of the radioiodinated oxytocin analog to its receptors)
T1 construct: host or cells: membrane preparation
T1 sequence (P30559 1-389): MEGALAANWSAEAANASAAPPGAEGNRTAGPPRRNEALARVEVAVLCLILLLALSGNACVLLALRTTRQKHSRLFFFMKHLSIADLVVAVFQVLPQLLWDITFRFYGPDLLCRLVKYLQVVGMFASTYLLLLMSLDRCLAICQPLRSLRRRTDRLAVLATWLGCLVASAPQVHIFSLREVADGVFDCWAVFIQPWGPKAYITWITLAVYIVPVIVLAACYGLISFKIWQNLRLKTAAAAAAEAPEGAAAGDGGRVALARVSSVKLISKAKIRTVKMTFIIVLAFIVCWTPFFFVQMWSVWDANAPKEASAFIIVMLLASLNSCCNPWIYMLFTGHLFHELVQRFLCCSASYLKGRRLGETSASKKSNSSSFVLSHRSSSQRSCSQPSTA
Procedure: The compounds according to the invention have formed the subject of biochemical and pharmacological studies. The affinity of the compounds according to the invention for oxytocin receptors was determined in an in vitro binding test using the method described by J. Elands et al., Eur. J. Pharmacol. (1987), 147, pp. 197-207. This method consists in studying in vitro the displacement of a radioiodinated oxytocin analog at the oxytocin receptors in a membrane preparation of human uterine oxytocin receptors. The IC50 values (concentration which inhibits 50% of the binding of the radioiodinated oxytocin analog to its receptors) are low and vary from 10^−10 to 10^−6 M in the latter test.

[2] = target: T2, cells expressing human oxytocin receptors (Homo sapiens, UniProt P30559); experiment: measurement of intracellular calcium (agonist or antagonist nature); assay type: cell-based
T2 sequence (P30559 1-389): T1 sequence (P30559 1-389)
Procedure: The agonist or antagonist nature of the compounds is determined in vitro in a test for the measurement of intracellular calcium with respect to cells expressing human oxytocin receptors according to the general technique described in Am. J. Physiol., 268, and Heart Circ. Physiol. (1995), 37, H404-H410.

[3] = target: human vasopressin V1a receptors (Homo sapiens, UniProt P37288); experiment: affinity for vasopressin V1a receptors (method of Thibonnier et al.); assay type: binding; settings: tested at a concentration of 1 μM; read-out: percentage of inhibition on V1a receptors
Source text: (§1) The affinity of these compounds for human vasopressin V1a receptors (method described by M. Thibonnier et al. in J. Biol. Chem. (1994), 269, pp. 3304-3310), V1b receptors (method described by T. Sugimoto et al. in J. Biol. Chem. (1994), 269, pp. 27088-27092) and V2 receptors (method described by T. Birnbaumer et al. in Nature (Lond.) (1992), 357, pp. 333-335) has also been studied. The compounds studied have little or no affinity for the V1a, V1b and V2 receptors.

[4] = target: T3, human vasopressin V1b receptors (Homo sapiens, UniProt P47901); experiment: affinity for vasopressin V1b receptors (method of Sugimoto et al.); assay type: binding; settings: tested at a concentration of 1 μM; read-out: percentage of inhibition on V1b receptors
T3 sequence (P47901 1-424): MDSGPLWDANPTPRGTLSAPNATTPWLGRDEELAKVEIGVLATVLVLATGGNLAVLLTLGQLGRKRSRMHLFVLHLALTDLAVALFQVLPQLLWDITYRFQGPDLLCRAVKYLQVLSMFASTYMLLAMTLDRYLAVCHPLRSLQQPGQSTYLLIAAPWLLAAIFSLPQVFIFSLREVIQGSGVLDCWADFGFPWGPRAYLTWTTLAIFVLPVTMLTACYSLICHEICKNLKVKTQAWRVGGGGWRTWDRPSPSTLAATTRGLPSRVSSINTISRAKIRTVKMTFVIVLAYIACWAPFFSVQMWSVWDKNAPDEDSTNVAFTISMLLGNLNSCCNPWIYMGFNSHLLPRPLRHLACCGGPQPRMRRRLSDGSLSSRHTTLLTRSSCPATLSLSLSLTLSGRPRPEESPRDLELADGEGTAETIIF
Source text: as §1

[5] = target: human vasopressin V2 receptors (Homo sapiens, UniProt P30518); experiment: affinity for vasopressin V2 receptors (method of Birnbaumer et al.); assay type: binding; settings: tested at a concentration of 1 μM; read-out: percentage of inhibition on V2 receptors
Source text: as §1

Sequence of human vasopressin V2 receptors (P30518 whole entry): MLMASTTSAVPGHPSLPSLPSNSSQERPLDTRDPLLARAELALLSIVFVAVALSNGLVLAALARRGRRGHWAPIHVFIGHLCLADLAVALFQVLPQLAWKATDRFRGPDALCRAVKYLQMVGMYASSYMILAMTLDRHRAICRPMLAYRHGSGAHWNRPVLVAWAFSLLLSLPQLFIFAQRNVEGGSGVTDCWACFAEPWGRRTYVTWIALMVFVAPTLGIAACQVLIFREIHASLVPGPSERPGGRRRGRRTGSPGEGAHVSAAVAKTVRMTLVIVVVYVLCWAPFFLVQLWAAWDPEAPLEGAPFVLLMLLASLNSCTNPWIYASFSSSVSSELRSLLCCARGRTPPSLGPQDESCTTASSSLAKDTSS
Sequence of human vasopressin V1a receptors (P37288 whole entry): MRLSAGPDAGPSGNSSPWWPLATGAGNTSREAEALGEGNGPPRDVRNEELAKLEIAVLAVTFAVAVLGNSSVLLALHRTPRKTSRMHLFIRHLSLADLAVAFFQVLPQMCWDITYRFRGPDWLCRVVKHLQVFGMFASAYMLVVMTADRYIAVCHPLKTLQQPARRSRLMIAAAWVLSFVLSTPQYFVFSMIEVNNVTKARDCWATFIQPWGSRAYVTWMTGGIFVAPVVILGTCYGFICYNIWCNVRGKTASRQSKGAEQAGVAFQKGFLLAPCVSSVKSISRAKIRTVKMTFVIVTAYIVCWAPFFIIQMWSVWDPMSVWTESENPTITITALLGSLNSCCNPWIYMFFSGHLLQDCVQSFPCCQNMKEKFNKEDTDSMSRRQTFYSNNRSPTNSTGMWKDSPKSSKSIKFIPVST

Question: For CCN(Cc1ccc[n+]([O-])c1)C(=O)c1ccc(Cl)c(C2(C)C(=O)N(Cc3ccc(OC)cc3OC)c3ccc(Cl)cc32)c1 (centres unmarked) (as salt: hydrochloride) [example 7, 4-chloro-3-[5-chloro-1-(2,4-dimethoxybenzyl)-3-methyl-2-oxo-2,3-dihydro-1H-indol-3-yl]-N-ethyl-N-(1-oxypyrid-3-ylmethyl)benzamide hydrochloride], which melting point is on record?
Answer: Its melting point is 176 °C.

Question: For CCN(Cc1ccc[n+](CC(=O)O)c1)C(=O)c1ccc(Cl)c(C2(C)C(=O)N(Cc3ccc(OC)cc3OC)c3ccc(Cl)cc32)c1 (centres unmarked) [example 2, 1-Carboxymethyl-3-[({4-chloro-3-[5-chloro-1-(2,4-dimethoxybenzyl)-3-methyl-2-oxo-2,3-dihydro-1H-indol-3-yl]benzoyl}(ethyl)amino)methyl]pyridinium chloride], which IC50 [1] is on record?
Answer: Its IC50 is 6.9 nM.

Question: For CCN(Cc1ccc[n+]([C@@H]2O[C@H](C(=O)O)[C@@H](O)[C@H](O)[C@H]2O)c1)C(=O)c1ccc(Cl)c(C2(C)C(=O)N(Cc3ccc(OC)cc3OC)c3ccc(Cl)cc32)c1 (stereo partly drawn) [example 3, 1-(β-D-Glucopyranuronosyl)-3-[({4-chloro-3-[5-chloro-1-(2,4-dimethoxybenzyl)-3-methyl-2-oxo-2,3-dihydro-1H-indol-3-yl]benzoyl}(ethyl)amino)methyl]pyridinium chloride], which IC50 [2] is on record?
Answer: The IC50 was 3 nM.

Question: What about the “agonist or antagonist nature” value [2] of the same molecule?
Answer: The value was “antagonist”.

Question: What does the source list for CCN(Cc1ccc[n+]([O-])c1)C(=O)c1ccc(Cl)c(C2(C)C(=O)N(Cc3ccc(OC)cc3OC)c3ccc(Cl)cc32)c1 (centres unmarked) [example 7, 4-chloro-3-[5-chloro-1-(2,4-dimethoxybenzyl)-3-methyl-2-oxo-2,3-dihydro-1H-indol-3-yl]-N-ethyl-N-(1-oxypyrid-3-ylmethyl)benzamide hydrochloride]?
Answer: IC50 [1]: < 50 nM; inhibition at 1 µM [3]: < 50%; inhibition at 1 µM [4]: < 50%; inhibition at 1 µM [5]: < 50%
